In this test the test system is HBV rcDNA. The test can be described thus: HepDE19 assay with bDNA quantitation of HBV rcDNA. It counts as cell-based, hepatitis B virus. Summed up:
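HepDE19 cells (HepG2-derived, Tet-regulated HBV replication) were deprived of tetracycline and then exposed to compounds for 7 days at 37 °C in 0.5% DMSO, 8-point titration from 25 μM. rcDNA was quantified by bDNA and EC50/EC90 came from 4-parameter fits. CC50 was measured by CellTiter-Glo ATP content on replicate plates after 4 days.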

The mark [1] stands for this setting: HepDE19 assay, inhibition of formation of relaxed circular DNA (rcDNA), bDNA quantitation; read-out: DE-19bDNA EC50.
Setting [2] is: HepDE19 assay, inhibition of formation of rcDNA; read-out: DE-19bDNA EC50.
Where [3] appears, read: Hepatitis B virus, HepDE19, HepDE19 assay, inhibition of formation of rcDNA; read-out: DE-19bDNA EC50.

Molecules are shown by their SMILES. Like-named read-outs stand apart in the source and are kept apart here.

Usually EC50 stands for the concentration giving half of the maximal effect. `CC(c1cnc(OCc2nc[nH]n2)c2cc(F)c(F)cc12)N(CCCO)C(=O)Nc1ccc(F)c(Cl)c1` (single isomer, unassigned) [Compound 364, 1-(1-(1-((1H-1,2,4-Triazol-3-yl)methoxy)-6,7-difluoroisoquinolin-4-yl)ethyl)-3-(3-chloro-4-fluorophenyl)-1-(3-hydroxypropyl)urea]: under setting [1], the EC50 came to 2000 nM.

On to `COCCCN(C(=O)Nc1ccc(F)c(Cl)c1)C(C)c1c[nH]c(=O)c2ccccc12` (stereo not drawn) [Compound 80], for which the 50% effective concentration (EC50) under setting [2] is 30 nM.

On to `CC(c1c[nH]c(=O)c2ccccc12)N(Cc1cncs1)C(=O)Nc1ccc(F)c(Cl)c1` (single isomer, unassigned) [Compound 323, 3-(3-Chloro-4-fluorophenyl)-1-(1-(1-oxo-1,2-dihydroisoquinolin-4-yl)ethyl)-1-(thiazol-5-ylmethyl)urea], for which, under setting [1], the EC50 stood at 85 nM.

On to `CC(c1c[nH]c(=O)c2c(F)c(F)ccc12)N(C)C(=O)Nc1ccc(F)c(C(F)F)c1` (single isomer, unassigned) [Compound 503, 1-(1-(7,8-Difluoro-1-oxo-1,2-dihydroisoquinolin-4-yl)ethyl)-3-(3-(difluoromethyl)-4-fluorophenyl)-1-methylurea], for which the concentration giving a half-maximal response (EC50) under setting [1] stood at 860 nM.

For `CC(c1c[nH]c(=O)c2cc(F)c(F)cc12)N(C)C(=O)Nc1ccnc(Cl)c1` (single isomer, unassigned) [Compound 418, 3-(2-Chloropyridin-4-yl)-1-(1-(6,7-difluoro-1-oxo-1,2-dihydroisoquinolin-4-yl)ethyl)-1-methylurea], the EC50 under setting [1] turned out to be 10000 nM.

For the molecule `CC(c1c[nH]c(=O)c2c(F)c(F)ccc12)N(CCS(N)(=O)=O)C(=O)Nc1ccc(F)cc1` (single isomer, unassigned) [Compound 395, 2-(1-(1-(7,8-Difluoro-1-oxo-1,2-dihydroisoquinolin-4-yl)ethyl)-3-(4-fluorophenyl)ureido)ethane-1-sulfonamide], the EC50 under setting [1] was determined as 300 nM.

As for `CCN(C(=O)Nc1ccc(F)c(Cl)c1)C(C)c1cnc(OC)c2ccccc12` (single isomer, unassigned) [Compound 23, 3-(3-Chloro-4-fluorophenyl)-1-ethyl-1-(1-(1-methoxyisoquinolin-4-yl)ethyl)urea], the EC50 under setting [2] stood at 270 nM.

Take `CC(c1cnc(OCc2nc[nH]n2)c2ccccc12)N(C)C(=O)Nc1ccc(F)c(Cl)c1` (single isomer, unassigned) [Compound 145, 1-(1-(1-((1H-1,2,4-Triazol-3-yl)methoxy)isoquinolin-4-yl)ethyl)-3-(3-chloro-4-fluorophenyl)-1-methylurea]: under setting [2], the concentration for a half-maximal effect (EC50) stood at 4200 nM.

With `CNC(=O)CCN(C(=O)Nc1ccc(F)c(Cl)c1)C(C)c1c[nH]c(=O)c2ccccc12` (racemic) [Compound 104, 3-(3-(3-chloro-4-fluorophenyl)-1-(1-(1-oxo-1,2-dihydroisoquinolin-4-yl)ethyl)ureido)-N-methylpropanamide], the half-maximal effective concentration (EC50) under setting [3] is 570 nM.

As for `CC(c1c[nH]c(=O)c2c(F)c(F)ccc12)N(C)C(=O)Nc1ccc(Cl)cc1` (single isomer, unassigned) [Compound 444, 3-(4-Chlorophenyl)-1-(1-(7,8-difluoro-1-oxo-1,2-dihydroisoquinolin-4-yl)ethyl)-1-methylurea], the half-maximal effective concentration (EC50) (read-out: DE-19bDNA EC50; HepDE19 assay, inhibition of formation of relaxed circular DNA (rcDNA), bDNA quantitation) was determined as 17000 nM.

Take `CC(c1cnc(S(C)(=O)=O)c2ccccc12)N(C)C(=O)Nc1ccc(F)c(Cl)c1` (single isomer, unassigned) [Compound 314, 3-(3-Chloro-4-fluorophenyl)-1-methyl-1-(1-(1-(methylsulfonyl)isoquinolin-4-yl)ethyl)urea]: the concentration for a half-maximal effect (EC50) under setting [1] worked out at 8300 nM.

Turning to `CC(c1c[nH]c(=O)c2cnccc12)N(CCCO)C(=O)Nc1ccc(F)c(Cl)c1` (stereo not drawn) [Compound 159, 3-(3-Chloro-4-fluorophenyl)-1-(3-hydroxypropyl)-1-(1-(1-oxo-1,2-dihydro-2,7-naphthyridin-4-yl)ethyl)urea], the EC50 under setting [3] is 100 nM.
